Experiment: Water solubility of the filling gas (Bunsen coefficient, Gas Encyclopaedia)
Format: physicochemical
Details: gas solubility divided by square root of molecular weight
Text: In the Tables, the water solubility factors have also been taken from the aforecited Gas Encyclopaedia from “L'Air Liquide”, Elsevier Publisher (1976).

SMILES | S gas {square root} Mw
FC(F)(F)Br [CBrF3] | .0004
FC(F)(F)F [CF4] | .0004
[Kr] [Kr, Krypton] | .006

— US20030194376A1, “Ultrasound contrast agents and methods of making and using them” (Bracco International B.V., priority 1990, published 2003)
